Measurements from patent US11690838B2, “Therapeutic agent for fibrosis” (TAIHO PHARMACEUTICAL CO., LTD., priority 2015, dated 2023).

System: Bleomycin-Induced Mouse Pathology (Lung Fibrosis) Model
Assay: Suppression effect on bleomycin-induced mouse pathology (lung fibrosis) model
Assay type: in vivo
Settings: C57BL mice, bleomycin intratracheal, every day for 35 days; for hydroxyproline amount of lung tissues compared to the control group (pathological condition): FIG. 1; for score of abnormal accumulation of a fibrous tissue in lung tissues (Ashcroft's method) compared to the control group: FIG. 2
Protocol: Test Example 1: Suppression Effect on Bleomycin-Induced Mouse Pathology (Lung Fibrosis) Model
Mice (C57BL, 6 weeks old) were anesthetized by intraperitoneally administrating pentobarbital (50 mg/kg/day), and then bleomycin (20 μg/25 μL per mouse) was intra-tracheally sprayed by a sprayer. A week later, the mice were anesthetized by inhalation of isoflurane, 0.2 mL of blood was taken from the eye orbit of the mice. The blood level of a surfactant protein-D (SP-D) was measured. The mice were divided into groups (9 mice) such that the groups have an equal average SP-D value.
The compound of the present invention was orally administered at each of doses of 100 and 200 mg/kg/day, every day for 35 days. In order to confirm whether a pathological model was established, an untreated group (Normal group) and a Sham group were set up. To the mice of the Sham group, physiological saline was intratracheally sprayed in place of bleomycin. The next day after completion of the final administration, the mice were anesthetized by inhalation of isoflurane and euthanized. Thereafter, the lungs were excised out and subjected to pathological analysis for tissues. Abnormal accumulation of a fibrous tissue was evaluated and the amounts of hydroxyproline in the tissues were measured. The abnormal accumulation of a fibrous tissue was evaluated by using Ashcroft's method (J Clin Pathol 1988; 41: 467-470).
The hydroxyproline amounts of lung tissues of individual groups are shown in FIG. 1 and scores of abnormal accumulation of a fibrous tissue in the lung tissues are shown in FIG. 2. […] From this, it was determined that abnormal accumulation of a fibrous tissue in the lung tissue in mice was induced by bleomycin treatment and pathological models are established.

CNC(=O)c1cc2c(Oc3ccc(NC(=S)NC(=O)Cc4ccccc4)cc3F)ccnc2cc1OC [the compound of the present invention, 4-[2-Fluoro-4-[[[(2-phenylacetyl)amino]thioxomethyl]amino]-phenoxy]-7-methoxy-N-methyl-6-quinolinecarboxamide]
significantly low: hydroxyproline amount of lung tissues compared to the control group (pathological condition) (100 mg/kg/day orally) | score of abnormal accumulation of a fibrous tissue in lung tissues (Ashcroft's method) compared to the control group (100 mg/kg/day orally) | hydroxyproline amount of lung tissues compared to the control group (pathological condition) (200 mg/kg/day orally) | score of abnormal accumulation of a fibrous tissue in lung tissues (Ashcroft's method) compared to the control group (200 mg/kg/day orally)
